{"source": "patent US11364229B2", "about": "“Triple combination formulations for antiemetic therapy” (LEIUTIS PHARMACEUTICALS PVT, LTD, priority 2017, dated 2022)", "assay": "Effect of Meglumine on solubility (stressed at 60° C. for 24 hours, filtered)", "assay_type": "physicochemical", "conditions": "Arginine+Aspartic acid buffer system", "procedure": "The samples were stressed at 60° C. for 24 hours and were analyzed after filtration.", "data": [{"smiles": "CNC[C@H](O)[C@@H](O)[C@H](O)[C@H](O)CO", "note": "[meglumine]", "values": [{"measurement": "effect on solubility of Aprepitant in the buffer system", "value": "improves the solubility of Aprepitant"}]}]}
